According to paper PMC11001641, “Iron–sulfur cluster assembly scaffold protein IscU is required for activation of ferric uptake regulator (Fur) in Escherichiacoli” (The Journal of Biological Chemistry, 2024):

Experiments:
[1] = target: T1, E. coli FhuF (Escherichia coli, UniProt P39405); assay: UV-Vis absorption of purified protein; type: binding; conditions: pH 8.0; 500 mM NaCl; protein from wild-type E. coli grown in M9 with 2 uM iron; bound during expression
T1 construct: his-tagged, expressed from pBAD in E. coli MC4100

[2] = target: T2, E. coli ferredoxin (Fdx) (Escherichia coli, UniProt P0A9R4); assay: UV-Vis absorption of purified protein; type: binding; conditions: pH 8.0; 500 mM NaCl; protein from wild-type E. coli grown in M9 with 2 uM iron; bound during expression
T2 construct: his-tagged, expressed from pBAD in E. coli MC4100; isc operon ferredoxin
T2 sequence (P0A9R4 2-111): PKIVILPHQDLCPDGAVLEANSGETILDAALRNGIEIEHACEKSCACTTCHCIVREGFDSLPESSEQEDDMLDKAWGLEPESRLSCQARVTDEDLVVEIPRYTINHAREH

T1 sequence (P39405 whole entry): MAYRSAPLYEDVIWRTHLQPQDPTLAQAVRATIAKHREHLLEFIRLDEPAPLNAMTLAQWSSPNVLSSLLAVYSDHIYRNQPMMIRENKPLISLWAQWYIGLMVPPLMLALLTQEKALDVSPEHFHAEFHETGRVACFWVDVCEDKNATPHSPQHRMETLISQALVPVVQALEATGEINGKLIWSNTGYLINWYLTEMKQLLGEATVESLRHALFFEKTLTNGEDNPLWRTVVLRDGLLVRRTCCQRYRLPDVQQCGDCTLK

[S]1[Fe][S][Fe]1 [[2Fe-2S] cluster]
UV-Vis absorption of purified protein [1]: [2Fe-2S] cluster assembly in the E. coli siderophore-reductase FhuF | UV-Vis absorption of purified protein [2]: the E. coli ferredoxin, a [2Fe-2S] cluster-containing protein
